Data on one molecule can be found in PMC5908784, “Extracellular loops 2 and 3 of the calcitonin receptor selectively modify agonist binding and efficacy” (Biochemical Pharmacology, 2018).

Each structure is given as a SMILES string. Positions count from the first letter of the chain named.

What all share (assay): ERK1/2 phosphorylation
Format in all cases: cell-based

The target of one test is T1, hCTR R281A (Homo sapiens, UniProt P30988, R281A).
T1 construct: expressed in transfected cells
T1 sequence (P30988 25-474 R281A): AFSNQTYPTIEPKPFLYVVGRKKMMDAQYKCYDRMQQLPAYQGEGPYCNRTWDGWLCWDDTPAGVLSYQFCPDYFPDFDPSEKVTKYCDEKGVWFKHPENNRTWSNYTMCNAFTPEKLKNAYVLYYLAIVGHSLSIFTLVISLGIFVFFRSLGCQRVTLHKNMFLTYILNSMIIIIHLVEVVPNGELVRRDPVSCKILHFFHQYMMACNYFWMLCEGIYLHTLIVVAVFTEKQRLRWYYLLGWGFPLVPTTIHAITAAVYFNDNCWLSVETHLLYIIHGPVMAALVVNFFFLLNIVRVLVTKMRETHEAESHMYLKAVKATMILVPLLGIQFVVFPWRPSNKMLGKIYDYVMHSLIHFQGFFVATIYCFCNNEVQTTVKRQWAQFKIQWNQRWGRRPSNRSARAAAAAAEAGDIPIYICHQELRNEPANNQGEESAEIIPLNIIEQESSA
To be noted: pERK maximal response, CV1-FlpIn cells, mean ± S.E.M. Put shortly: (§1)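 Read-out is phospho-ERK1/2, reported relative to the 10% FBS maximum taken at 6 min. Wells held 2.5 × 10^4 cells seeded the night before. Potency and efficacy reflect functional affinity, efficacy and stimulus-response coupling combined.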

For the next test, the target named is T2, hCTR D373A (Homo sapiens, UniProt P30988, D373A).
T2 construct: c-Myc (N); expressed in transfected cells
T2 sequence (P30988 25-474 D373A): T1 sequence (P30988 25-474 R281A) with A257R, D349A
Conditions: pERK maximal response, CV1-FlpIn cells, mean ± S.E.M. Put shortly: as §1

A further test concerns the target T3, hCTR P360A (Homo sapiens, UniProt P30988, P360A).
T3 construct: expressed in transfected cells
T3 sequence (P30988 25-474 P360A): T1 sequence (P30988 25-474 R281A) with A257R, P336A
Conditions: pERK maximal response, CV1-FlpIn cells, mean ± S.E.M. Put shortly:
as §1

The target in the next test is T4, hCTR L298A (Homo sapiens, UniProt P30988, L298A).
T4 construct: c-Myc (N); expressed in transfected cells
T4 sequence (P30988 25-474 L298A): T1 sequence (P30988 25-474 R281A) with A257R, L274A
Conditions: pERK maximal response, CV1-FlpIn cells, mean ± S.E.M. Put shortly:
as §1

The next test deals with T5, hCTR E294A (Homo sapiens, UniProt P30988, E294A).
T5 construct: c-Myc (N); expressed in transfected cells
T5 sequence (P30988 25-474 E294A): T1 sequence (P30988 25-474 R281A) with A257R, E270A
To be noted: read-out: Emax (% WT). Put shortly:
as §1

For the molecule `CC(C)C[C@H](NC(=O)[C@H](CCCCN)NC(=O)CNC(=O)[C@H](CC(C)C)NC(=O)[C@@H](NC(=O)[C@@H]1CSSC[C@H](N)C(=O)N[C@@H](CO)C(=O)N[C@@H](CC(N)=O)C(=O)N[C@@H](CC(C)C)C(=O)N[C@@H](CO)C(=O)N[C@@H]([C@@H](C)O)C(=O)N1)C(C)C)C(=O)N[C@@H](CO)C(=O)N[C@@H](CCC(N)=O)C(=O)N[C@@H](CCC(=O)O)C(=O)N[C@@H](CC(C)C)C(=O)N[C@@H](Cc1c[nH]cn1)C(=O)N[C@@H](CCCCN)C(=O)N[C@@H](CC(C)C)C(=O)N[C@@H](CCC(N)=O)C(=O)N[C@H](C(=O)N[C@@H](Cc1ccc(O)cc1)C(=O)N1CCC[C@H]1C(=O)N[C@@H](CCCNC(=N)N)C(=O)N[C@H](C(=O)N[C@@H](CC(N)=O)C(=O)N[C@H](C(=O)NCC(=O)N[C@@H](CO)C(=O)NCC(=O)N[C@H](C(=O)N1CCC[C@H]1C(N)=O)[C@@H](C)O)[C@@H](C)O)[C@@H](C)O)[C@@H](C)O` [sCT], the Emax (commonly the size of the effect at its maximum, as opposed to the concentration needed) at hCTR R281A came to 45 ± 5%; at hCTR D373A, 103 ± 11%; on hCTR P360A, 115 ± 9%; at hCTR L298A, 85 ± 6%; on hCTR E294A, 126 ± 7%.
